Assay: Effect of gamma irradiation on paclitaxel stability in various compositions (paclitaxel assay before and after irradiation)
Assay type: physicochemical
From the text: Paclitaxel either as a powder or in solution in different solvents such as DMA, PEG 400, DMA:PEG 400 (25:75% w/w) and in a polymer solution in DMA:PEG 400 (25:75% w/w) was subjected to gamma irradiation sterilization at a dose of 25 KGy and analyzed for paclitaxel content before and after irradiation.

Assay WRT initial, % (percentage remaining after treatment) (after gamma irradiation at 25 KGy): 94.74%
Assay, % Post-irradiation (paclitaxel content after gamma irradiation at 25 KGy): 94.74 ± 2.36%
Assay, % Initial (paclitaxel content before gamma irradiation): 100%
SMILES: CC(=O)O[C@H]1C(=O)[C@@]2(C)[C@H]([C@H](OC(=O)c3ccccc3)[C@]3(O)C[C@H](OC(=O)[C@H](O)[C@@H](NC(=O)c4ccccc4)c4ccccc4)C(C)=C1C3(C)C)[C@]1(OC(C)=O)CO[C@@H]1C[C@@H]2O [Paclitaxel]

Reference: US20070003626A1, “Sterile in-situ microcarrier forming gelled polymeric dispersions and processes to manufacture the same” (priority 2004, published 2007)
